Here are results for eight compounds from PubChem BioAssay (NCI).

What all share (test): inhibition of tumour cell growth, NCI panel, 48 h
The test system of assay [1] is A498 renal.
Assay [2] concerns HCC-2998 colon.
Assay [3] deals with MCF7 breast.
The test system of assay [4] is NCI-H460 lung.
The test system of assay [5] is NCI-H522 lung.
Assay [6] deals with RPMI-8226 leukemia.
Assay [7] has as its system SK-MEL-28 melanoma.
In assay [8] the test system is SK-MEL-5 melanoma.
Assay [9] relates to SNB-75 CNS.
Assay [10] concerns SW-620 colon.

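Five concentrations, 48 hours, 96-well plates. The concentration for 50% growth inhibition is given as GI50. The concentration for full growth arrest is given as TGI.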 Some results are limits rather than exact numbers.

On to `COc1cc(OC)c(/C=C/c2cnc3ccccc3n2)c(OC)c1`, for which the TGI in [1], in [2], in [3], in assay [4], in assay [5] and in assay [6] was more than 10 µM throughout. The TGI in assay [7], in [8], in [9] and in assay [10] was more than 10 µM throughout.
For the compound `COc1ccc2c(c1)C(=O)c1c-2c(Nc2ccc(Cl)cc2)nc2ccccc12`, the GI50 in [1] is 5.01 µM; in assay [2], 22.1 µM; in assay [3], more than 100 µM; in assay [4], more than 100 µM; in [5], 10.1 µM; in assay [6], 24.5 µM. Further, the GI50 in [7] was 19.7 µM; in assay [8], 2.84 µM; in assay [9] it was 4.27 µM; in assay [10], 23.8 µM. Moreover, the TGI in assay [1] was 18.9 µM; in assay [2], more than 100 µM; in assay [3] it was more than 100 µM; in assay [4], more than 100 µM; in [5], 45.5 µM; in [6], more than 100 µM. For the same compound, the TGI in [7] is more than 100 µM; in assay [8], 13.2 µM; in assay [9], 22.8 µM; in assay [10] it was more than 100 µM.
For the compound `Cc1cccc2c(=O)c3c(sc12)c(NCCNCCO)nc1ccccc13`, the GI50 in [1] is 1.67 µM; in assay [2] it was 1.55 µM; in [3], 1.24 µM; in assay [4], 1.19 µM; in assay [5], 1.63 µM; in assay [6], 1.81 µM. Moreover, the GI50 in assay [7] is 1.79 µM; in assay [8], 1.65 µM; in assay [9], 1.15 µM; in assay [10] it was 1.45 µM. The TGI in assay [1] was 3.7 µM; in [2], 3.11 µM; in assay [3], 2.72 µM; in assay [4] it was 2.64 µM; in [5], 3.54 µM; in assay [6], 3.88 µM. The TGI in assay [7] was determined as 3.31 µM; in assay [8], 3.08 µM; in assay [9], 2.43 µM; in [10], 3.01 µM.
As to `COc1ccc(OC)c(/C=C(/C)[N+](=O)[O-])c1`, the GI50 in assay [1] was 8.24 µM; in assay [2], 1.84 µM; in assay [3], 0.832 µM; in assay [4] it was 3.41 µM; in [5], 1.93 µM; in assay [6], 0.603 µM. Moreover, the GI50 was 2.22 µM in assay [7], 3.47 µM in assay [8], 4.73 µM in assay [9] and 1.79 µM in assay [10]. Also, the TGI was 20.9 µM in assay [1]; 3.41 µM in [2]; 2.21 µM in assay [3]; 12.7 µM in [4]; 3.64 µM in [5]; 3.64 µM in assay [6]. Moreover, the TGI in [7] was 4.73 µM; in [8], 13 µM; in assay [9], 16 µM; in assay [10] it was 3.78 µM.
As to `Cc1occc1C(=S)Nc1ccc(Cl)c(C(=O)OC(C)C2CC2)c1` (stereo not given), the TGI was 48.2 µM in [1]; 39.5 µM in [2]; 57.3 µM in assay [3]; more than 100 µM in [4]; 32.9 µM in assay [5]; 60.1 µM in assay [6]. Also, the TGI in assay [7] was more than 100 µM; in assay [8], 31.8 µM; in assay [9] it was 68.9 µM; in assay [10] it was more than 100 µM.
Take `COc1cc2c3c(n(CCCI)c(=O)c2cc1OC)-c1cc2c(cc1C3=O)OCO2`: the GI50 was 6.79 µM in assay [1]; 5.61 µM in assay [2]; 0.404 µM in assay [3]; 0.272 µM in assay [4]; 8.32 µM in [5]; 3.76 µM in assay [6]. Further, the GI50 is 52.1 µM in assay [7], 1.81 µM in [8], more than 100 µM in [9] and 3.17 µM in [10]. Besides, the TGI in assay [1] is more than 100 µM; in assay [2], more than 100 µM; in [3], 6.01 µM; in assay [4] it was more than 100 µM; in [5], more than 100 µM; in [6], more than 100 µM. Moreover, the TGI in assay [7] is more than 100 µM; in [8], 8.5 µM; in [9] it was more than 100 µM; in [10] it was more than 100 µM.
`CCNC(=O)c1cc2c(-c3cc(C(C)(C)O)ccc3Oc3c(C)cc(F)cc3C)cn(C)c(=O)c2[nH]1`: the GI50 was 0.898 µM in assay [1]; 1.66 µM in assay [2]; 0.521 µM in assay [3]; 3.3 µM in assay [4]; 1.76 µM in [5]; 0.605 µM in [6]. Moreover, the GI50 in [7] is 4.37 µM; in assay [8], 2.09 µM; in assay [9], 0.108 µM; in assay [10], 3.56 µM. Further, the TGI amounted to 4.84 µM in assay [1]; 4.03 µM in assay [2]; 12.9 µM in assay [3]; 17.6 µM in [4]; 14.2 µM in assay [5]; 8.98 µM in assay [6]. The TGI worked out at 17.9 µM in assay [7], 6.89 µM in [8], 12.8 µM in assay [9] and 21 µM in assay [10].
For `CCN(C(=O)c1cc(F)ccc1Oc1cncnc1N1CC2(CCN(CC3CCC(NS(=O)(=O)CC)CC3)CC2)C1)C(C)C` (stereo not given), the GI50 in assay [1], in assay [2], in assay [3], in assay [4], in [5] and in [6] was more than 100 µM throughout. The GI50 in assay [7], in assay [8], in assay [9] and in assay [10] was more than 100 µM each time. In addition, the TGI in assay [1], in assay [2], in [3], in assay [4], in assay [5] and in assay [6] was more than 100 µM throughout. The TGI in assay [7], in assay [8], in [9] and in assay [10] was more than 100 µM throughout.
